The values below come from patent US11591243B2, “Industrial process and system for the inactivation of liquid waste” (CRISTALIA PRODUTOS QUIMICOS FARMACEUTICOS LTDA., priority 2018, dated 2023).

A short description of data set [1]: Inactivation kinetics by HPLC of high potency APIs with chemical agents. The following applies: chemical agents and analytical methods appropriate for each API; different exposure time; HPLC (FIG. 4). The format is physicochemical. The method, then:
The inactivation kinetics by HPLC of high potency APIs bortezomib, decitabine, sunitinib malate, temozolomide and zoledronic acid was evaluated using chemical agents and analytical methods appropriate for each API.

The nature of data set [2]: Inactivation kinetics by HPLC of imatinib mesylate liquid waste with hypochlorous acid. The format is physicochemical. The note with it: 20 mg/mL aqueous solution, 1% hypochlorous acid aqueous solution as inactivation chemical agent. The method, then: The inactivation kinetics by HPLC of a liquid waste comprising 20 mg/mL imatinib mesylate aqueous solution was evaluated using a 1% hypochlorous acid aqueous solution as inactivation chemical agent, as illustrated in FIGS. 2 and 3. It is possible to verify that 10 minutes of exposure were enough for complete inactivation of imatinib mesylate by hypochlorous acid.
The equipment used was a High-Performance Liquid Chromatography-HPLC, Agilent Tech. Model 1260.
Solution A: Prepare a mixture of methanol and acetonitrile (300:200) and homogenize.
Mobile Phase: transfer 1.65 g of sodium dihydrogen phosphate dihydrate to a beaker. Dissolve in 550 mL of purified water and adjust pH to 8.0±0.2 using trimethylamine and homogenize. Add 450 mL of solution A, homogenize and filter using a membrane of 0.45 μm.
Chromatographic Conditions:
Column: Develosil ODS HG-5 (4.6×150 mm, 5 μm)—Phenomenex
Column temperature: 30° C.
Chromatographic time: 50 minutes
Retention time for imatinib: about 18 minutes
Sample temperature: 5° C.

Where a name gives a salt, the structure may show the parent alone.

For `CC(C)C[C@H](NC(=O)[C@H](Cc1ccccc1)NC(=O)c1cnccn1)B(O)O` [bortezomib], the “inactivation by chemical agent action” value in data set [1] is reported as “completely inactivated”.
For `Cc1ccc(NC(=O)c2ccc(CN3CCN(C)CC3)cc2)cc1Nc1nccc(-c2cccnc2)n1` [imatinib mesylate], the “exposure time enough for complete inactivation” value in data set [2] is at most 10 min.
Take `CCN(CC)CCNC(=O)c1c(C)[nH]c(/C=C2\C(=O)Nc3ccc(F)cc32)c1C` [sunitinib malate]: in data set [1], the “inactivation by chemical agent action” value was “completely inactivated”.
